The values that follow are results of earlier work, collected in US12336538B2, “Method for controlling rats and mice with cholecalciferol baits” (priority 2014, dated 2025).

In one data set the test system is bait shyness. Conditions: Gould and Holmes, Pest Manag. Sci. 2008.

Structures are written as SMILES.

Take `COc1ccc2c(c1)[C@]13CCCC[C@@H]1[C@H](C2)N(C)CC3` [dextromethorphan]: the “prevention of bait shyness to cholecalciferol” value in the data set on bait shyness is reported as “ineffective”.

Regarding `C=C1CC[C@H](O)C/C1=C/C=C1\CCC[C@]2(C)[C@@H]([C@H](C)CCCC(C)C)CC[C@@H]12` [cholecalciferol, Cholecalciferol], the “suitability to control a rat population” value in the data set on rat population (0.1% cholecalciferol alone, only one day of feeding, Posipischil and Schnorbach 1994) is recorded as “not suitable to control a rat population”. Besides, the “suitability to control rat population” value in the data set on rat population (cholecalciferol alone, Kocher and Navjot 2013) is reported as “not suitable to control rat population”.
